Measurements: patent publication US8609065B2, “Molecules for targeting compounds to various selected organs, tissues or tumor cells” (Prosensa Technologies B.V., priority 2007, dated 2013)
Peptide text beside a SMILES is read from it.

How the values were obtained:
[1] = In vivo targeting to brain cells, Cy5-labeled peptide imaging; conditions: 7 nmol intravenously, nude mouse
Procedure: Peptide THRPPMWSPVWP (SEQ ID NO: 1) was labeled with a Cy5 fluorescent label and 7 nmol was injected intravenously into the tail vein of a nude mouse. Pictures were taken with a Maestro imaging system using the filters for Cy5 detection.
On the left side of FIGS. 1A and 1B the detected Cy5 pattern is shown separately in red for quantitation. The numbers on the left side indicate the amount of detected Cy5 label.

[2] = tested on: KM109 cells; experiment: Uptake of fluorescently labeled variants of THRPPMWSPVWP on KM109 cells; type: cell-based; conditions: fluorescently labeled peptide
Procedure: Several variants of peptide THRPPMWSPVWP (SEQ ID NO: 1) (see Table 2) were selected, synthesized with a fluorescent label and tested for uptake on KM109 cells. Peptides 3, 7, 8, 9, 10, and 11 were tested. […] The other peptides depicted in the table below are yet to be tested for uptake on KM109 cells. Moreover, all peptides are to be tested for uptake on neuroblastoma cells in a similar fashion.

[3] = tested on: muscle cells; experiment: Selective uptake by muscle cells (summary statement); type: cell-based
Excerpt: Therefore, these may be used for targeting diagnostic moieties or biologically active moieties to an organ or tissue or cell type of interest, especially to muscle cells or across the blood brain barrier to brain cells, to neuronal cells or to tumor cells of neuronal or neuroectodermal origin.

[4] = tested on: N1E-115 mouse neuroblastoma cells; experiment: In vitro uptake of FAM-labeled peptides into neuroblastoma cells (fluorescence microscopy); type: cell-based; conditions: FAM-labeled peptide, N1E-115 cells
Procedure: A selection of peptides was synthesized and provided with a fluorescent label (FAM) and screened for uptake on mouse neuroblastoma cells in vitro.
N1E-115 mouse neuroblastoma cells were incubated with the FAM-labeled peptides and photographed with an inverted fluorescence microscope, without previous fixation.

For `CSCC[C@H](NC(=O)[C@@H]1CCCN1C(=O)[C@@H]1CCCN1C(=O)[C@H](CCCNC(=N)N)NC(=O)[C@H](Cc1c[nH]cn1)NC(=O)[C@@H](N)[C@@H](C)O)C(=O)N[C@@H](Cc1c[nH]c2ccccc12)C(=O)N[C@@H](CO)C(=O)N1CCC[C@H]1C(=O)N[C@H](C(=O)N[C@@H](Cc1c[nH]c2ccccc12)C(=O)N1CCC[C@H]1C(=O)O)C(C)C` [THRPPMWSPVWP] (H-THRPPMWSPVWP-OH; N-terminus and C-terminus assumed), the “crossing of the blood brain barrier” value [1] was “able to cross the blood brain barrier” and the “Cy5 signal in the brain” value ([1]; 20 minutes after injection) was “clear signal could be detected in the brain”.

With HRPPMWSPVW the “uptake on KM109 cells” value [2] was “taken up, although at a lower level” and the “selective uptake by muscle cells” value [3] was “selectively taken up by muscle cells”.

In the case of HRPPMWSPVWP, the “uptake on KM109 cells” value [2] is reported as “taken up very efficiently” and the “selective uptake by muscle cells” value [3] is reported as “selectively taken up by muscle cells”.

For LPWKPLG, the “intracellular staining pattern after uptake” value [4] was “uniform staining of the cytoplasm as well as the nucleus” and the “uptake by the neuroblastoma cells” value ([4]; inverted fluorescence microscope, no fixation) was “efficiently taken up”.

In the case of THRPPMWS, the “uptake on KM109 cells” value [2] is reported as “taken up, although at a lower level” and the “selective uptake by muscle cells” value [3] is reported as “selectively taken up by muscle cells”.
